# Laboratory results as given in PubChem BioAssay (NCI).
#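 Test compounds were applied to cells in 96-well plates for 48 hours at 5 doses. Here, GI50 denotes the concentration required for 50% inhibition of growth. TGI: concentration producing complete growth inhibition.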
# What was measured:
# Assay in all cases: NCI-60 cell line screen, 48 h
# [1] = tested on: 786-0 renal
# [2] = tested on: A498 renal
# [3] = tested on: A549 NSCLC
# [4] = tested on: ACHN renal
# [5] = tested on: BT-549 breast
# [6] = tested on: CAKI-1 renal
# [7] = tested on: CCRF-CEM leukemia
# [8] = tested on: COLO 205 colon
# [9] = tested on: DU-145 prostate
# [10] = tested on: EKVX NSCLC
# [11] = tested on: HCC-2998 colon
# [12] = tested on: HCT-116 colon
# [13] = tested on: HCT-15 colon
# [14] = tested on: HL-60(TB) leukemia
# [15] = tested on: HOP-62 NSCLC
# [16] = tested on: HOP-92 NSCLC
# [17] = tested on: HS 578T breast
# [18] = tested on: HT29 colon
# [19] = tested on: IGROV1 ovarian
# [20] = tested on: K-562 leukemia
# [21] = tested on: KM12 colon
# [22] = tested on: LOX IMVI melanoma
# [23] = tested on: M14 melanoma
# [24] = tested on: MALME-3M melanoma
# [25] = tested on: MCF7 breast
# [26] = tested on: MDA-MB-231 breast
# [27] = tested on: MDA-MB-435
# [28] = tested on: MOLT-4 leukemia
# [29] = tested on: NCI-H226 lung
# [30] = tested on: NCI-H23 lung
# [31] = tested on: NCI-H460 lung
# [32] = tested on: NCI-H522 lung
# [33] = tested on: NCI/ADR-RES ovarian
# [34] = tested on: OVCAR-3 ovarian
# [35] = tested on: OVCAR-4 ovarian
# [36] = tested on: OVCAR-5 ovarian
# [37] = tested on: OVCAR-8 ovarian
# [38] = tested on: PC-3 prostate
# [39] = tested on: RPMI-8226 leukemia
# [40] = tested on: RXF 393 renal
# [41] = tested on: SF-268 CNS
# [42] = tested on: SF-295 CNS
# [43] = tested on: SF-539 CNS
# [44] = tested on: SK-MEL-2 melanoma
# [45] = tested on: SK-MEL-28 melanoma
# [46] = tested on: SK-MEL-5 melanoma
# [47] = tested on: SK-OV-3 ovarian
# [48] = tested on: SN12C renal
# [49] = tested on: SNB-19 CNS
# [50] = tested on: SNB-75 CNS
# [51] = tested on: SR leukemia
# [52] = tested on: SW-620 colon
# [53] = tested on: T-47D breast
# [54] = tested on: TK-10 renal
# [55] = tested on: U251 CNS
# [56] = tested on: UACC-257 melanoma
# [57] = tested on: UACC-62 melanoma
# [58] = tested on: UO-31 renal
smiles,measurement,setting,value
Cn1c(C(=O)c2ccncc2)cc2ccccc21,GI50,[1],> 100 µM
same,TGI,[1],> 100 µM
same,GI50,[2],26.2 µM
same,TGI,[2],> 100 µM
same,GI50,[3],> 100 µM
same,TGI,[3],> 100 µM
same,GI50,[4],> 100 µM
same,TGI,[4],> 100 µM
same,GI50,[5],> 100 µM
same,TGI,[5],> 100 µM
same,GI50,[6],72.9 µM
same,TGI,[6],> 100 µM
same,GI50,[7],> 100 µM
same,TGI,[7],> 100 µM
same,GI50,[8],> 100 µM
same,TGI,[8],> 100 µM
same,GI50,[9],> 100 µM
same,TGI,[9],> 100 µM
same,GI50,[10],78.1 µM
same,TGI,[10],> 100 µM
same,GI50,[11],> 100 µM
same,TGI,[11],> 100 µM
same,GI50,[12],72 µM
same,TGI,[12],> 100 µM
same,GI50,[13],90.9 µM
same,TGI,[13],> 100 µM
same,GI50,[14],76.5 µM
same,TGI,[14],> 100 µM
same,GI50,[15],> 100 µM
same,TGI,[15],> 100 µM
same,GI50,[16],40.2 µM
same,TGI,[16],> 100 µM
same,GI50,[17],65 µM
same,TGI,[17],> 100 µM
same,GI50,[18],92.8 µM
same,TGI,[18],> 100 µM
same,GI50,[19],> 100 µM
same,TGI,[19],> 100 µM
same,GI50,[20],59.3 µM
same,TGI,[20],> 100 µM
same,GI50,[21],75.5 µM
same,TGI,[21],> 100 µM
same,GI50,[22],> 100 µM
same,TGI,[22],> 100 µM
same,GI50,[23],> 100 µM
same,TGI,[23],> 100 µM
same,GI50,[24],> 100 µM
same,TGI,[24],> 100 µM
same,GI50,[25],> 100 µM
same,TGI,[25],> 100 µM
same,GI50,[26],66.5 µM
same,TGI,[26],> 100 µM
same,GI50,[27],> 100 µM
same,TGI,[27],> 100 µM
same,GI50,[28],54.4 µM
same,TGI,[28],> 100 µM
same,GI50,[29],> 100 µM
same,TGI,[29],> 100 µM
same,GI50,[30],> 100 µM
same,TGI,[30],> 100 µM
same,GI50,[31],> 100 µM
same,TGI,[31],> 100 µM
same,GI50,[32],78.5 µM
same,TGI,[32],> 100 µM
same,GI50,[33],46.8 µM
same,TGI,[33],> 100 µM
same,GI50,[34],49.7 µM
same,TGI,[34],> 100 µM
same,GI50,[35],> 100 µM
same,TGI,[35],> 100 µM
same,GI50,[36],> 100 µM
same,TGI,[36],> 100 µM
same,GI50,[37],46 µM
same,TGI,[37],> 100 µM
same,GI50,[38],80.7 µM
same,TGI,[38],> 100 µM
same,GI50,[39],48.8 µM
same,TGI,[39],> 100 µM
same,GI50,[40],35.1 µM
same,TGI,[40],> 100 µM
same,GI50,[41],96.7 µM
same,TGI,[41],> 100 µM
same,GI50,[42],> 100 µM
same,TGI,[42],> 100 µM
same,GI50,[43],87.5 µM
same,TGI,[43],> 100 µM
same,GI50,[44],> 100 µM
same,TGI,[44],> 100 µM
same,GI50,[45],> 100 µM
same,TGI,[45],> 100 µM
same,GI50,[46],37.5 µM
same,TGI,[46],> 100 µM
same,GI50,[47],> 100 µM
same,TGI,[47],> 100 µM
same,GI50,[48],> 100 µM
same,TGI,[48],> 100 µM
same,GI50,[49],> 100 µM
same,TGI,[49],> 100 µM
same,GI50,[50],85.6 µM
same,TGI,[50],> 100 µM
same,GI50,[51],63.1 µM
same,TGI,[51],> 100 µM
same,GI50,[52],52.8 µM
same,TGI,[52],> 100 µM
same,GI50,[53],41.6 µM
same,TGI,[53],> 100 µM
same,GI50,[54],> 100 µM
same,TGI,[54],> 100 µM
same,GI50,[55],> 100 µM
same,TGI,[55],> 100 µM
same,GI50,[56],> 100 µM
same,TGI,[56],> 100 µM
same,GI50,[57],83.5 µM
same,TGI,[57],> 100 µM
same,GI50,[58],27.4 µM
same,TGI,[58],> 100 µM
COc1cc2ncn(-c3cc(OCc4ccccc4C(F)(F)F)c(C(=O)N(C)C)s3)c2cc1OC,GI50,[1],> 25 µM
same,TGI,[1],> 25 µM
same,GI50,[2],4.58 µM
same,TGI,[2],> 23.5 µM
same,GI50,[3],24.9 µM
same,TGI,[3],> 25 µM
same,GI50,[4],> 25 µM
same,TGI,[4],> 25 µM
same,GI50,[5],> 21.9 µM
same,TGI,[5],> 25 µM
same,GI50,[6],> 25 µM
same,TGI,[6],> 25 µM
same,GI50,[7],> 22.1 µM
same,TGI,[7],> 25 µM
same,GI50,[8],> 16.8 µM
same,TGI,[8],> 25 µM
same,GI50,[9],> 25 µM
same,TGI,[9],> 25 µM
same,GI50,[10],> 25 µM
same,TGI,[10],> 25 µM
same,GI50,[11],> 25 µM
same,TGI,[11],> 25 µM
same,GI50,[12],> 25 µM
same,TGI,[12],> 25 µM
same,GI50,[13],> 25 µM
same,TGI,[13],> 25 µM
same,GI50,[14],> 25 µM
same,TGI,[14],> 25 µM
same,GI50,[15],> 13.5 µM
same,TGI,[15],> 25 µM
same,GI50,[16],6.66 µM
same,TGI,[16],> 23.9 µM
same,GI50,[17],> 25 µM
same,TGI,[17],> 25 µM
same,GI50,[18],> 25 µM
same,TGI,[18],> 25 µM
same,GI50,[19],> 25 µM
same,TGI,[19],> 25 µM
same,GI50,[20],> 21.3 µM
same,TGI,[20],> 25 µM
same,GI50,[21],> 25 µM
same,TGI,[21],> 25 µM
same,GI50,[22],> 25 µM
same,TGI,[22],> 25 µM
same,GI50,[23],> 25 µM
same,TGI,[23],> 25 µM
same,GI50,[24],> 25 µM
same,TGI,[24],> 25 µM
same,GI50,[25],> 25 µM
same,TGI,[25],> 25 µM
same,GI50,[26],10.9 µM
same,TGI,[26],> 25 µM
same,GI50,[27],> 25 µM
same,TGI,[27],> 25 µM
same,GI50,[28],> 25 µM
same,TGI,[28],> 25 µM
same,GI50,[29],5.85 µM
same,TGI,[29],> 12.5 µM
same,GI50,[30],> 25 µM
same,TGI,[30],> 25 µM
same,GI50,[31],> 25 µM
same,TGI,[31],> 25 µM
same,GI50,[32],17.3 µM
same,TGI,[32],> 25 µM
same,GI50,[33],> 17 µM
same,TGI,[33],> 25 µM
same,GI50,[34],> 21.8 µM
same,TGI,[34],> 25 µM
same,GI50,[35],18.1 µM
same,TGI,[35],> 25 µM
same,GI50,[36],> 25 µM
same,TGI,[36],> 25 µM
same,GI50,[37],17.7 µM
same,TGI,[37],> 25 µM
same,GI50,[38],> 19 µM
same,TGI,[38],> 25 µM
same,GI50,[39],> 25 µM
same,TGI,[39],> 25 µM
same,GI50,[40],8.53 µM
same,TGI,[40],> 18.7 µM
same,GI50,[41],> 25 µM
same,TGI,[41],> 25 µM
same,GI50,[42],> 22.6 µM
same,TGI,[42],> 25 µM
same,GI50,[43],> 25 µM
same,TGI,[43],> 25 µM
same,GI50,[44],> 20.2 µM
same,TGI,[44],> 25 µM
same,GI50,[45],> 25 µM
same,TGI,[45],> 25 µM
same,GI50,[46],6.7 µM
same,TGI,[46],> 13.1 µM
same,GI50,[47],> 16 µM
same,TGI,[47],> 25 µM
same,GI50,[48],24.6 µM
same,TGI,[48],> 25 µM
same,GI50,[49],> 25 µM
same,TGI,[49],> 25 µM
same,GI50,[50],> 18.6 µM
same,TGI,[50],> 25 µM
same,GI50,[51],> 25 µM
same,TGI,[51],> 25 µM
same,GI50,[52],> 25 µM
same,TGI,[52],> 25 µM
same,GI50,[53],7.02 µM
same,TGI,[53],> 17 µM
same,GI50,[54],> 22.6 µM
same,TGI,[54],> 25 µM
same,GI50,[55],> 25 µM
same,TGI,[55],> 25 µM
same,GI50,[56],> 25 µM
same,TGI,[56],> 25 µM
same,GI50,[57],21.6 µM
same,TGI,[57],> 25 µM
same,GI50,[58],9.69 µM
same,TGI,[58],> 25 µM
